Literature values in patent US5846980A, “N-(benzhydryloxyalkyl)-4-(carboxy/carbamoyl methyl)-piperidine derivatives as antidepressants” (Cooperation Pharmaceutique Francaise, priority 1994, dated 1998).

Experiments:
[1] = tested on: antidepressant activity
[2] = tested on: ptosis and hypothermia induced by reserpine; details: in vivo
[3] = tested on: motor activity of the animals; details: in vivo
[4] = tested on: immobility time of the mouse
[5] = tested on: stereotypic behaviors; details: in vivo
[6] = tested on: sleep induced by phenobarbital; details: in vivo
[7] = tested on: dopamine re-uptake
[8] = tested on: noradrenaline re-uptake

Compound: CN1Cc2c(N)cccc2C(c2ccccc2)C1 (stereo not drawn) [1,2,3,4-tetrahydro-2-methyl-4-phenyl-8-isoquinolinamine]
- antidepressant activity in human clinical studies [1]: this effect is demonstrated in human clinical studies

Compound: 1-[2-(Diphenylmethoxy)ethyl]-4-(3-phenylpropenyl)piperazine
- antagonism of the hypothermia induced by reserpine [2]: antagonizes neither the ptosis nor the hypothermia induced by reserpine
- antagonism of the ptosis induced by reserpine [2]: antagonizes neither the ptosis nor the hypothermia induced by reserpine
- motor activity of the animals [3]: increases the motor activity of the animals
- immobility time in the behavioral despair test [4]: decreases the immobility time of the mouse
- stereotypic behaviors [5]: induces stereotypic behaviors
- sleep induced by phenobarbital [6]: decreases the sleep induced by phenobarbital

Compound: c1ccc2sc(C3(N4CCCCC4)CCCCC3)cc2c1 [1-[1-(2-Benzo[b]thiophenyl)cyclohexyl]piperidine]
- inhibition of dopamine re-uptake [7]: inhibit dopamine and noradrenaline re-uptake
- inhibition of noradrenaline re-uptake [8]: inhibit dopamine and noradrenaline re-uptake
